Values of other authors as cited in patent publication US7737327B2, “Methods for screening for genes and small molecules that activate mammalian receptor proteins” (The University of Kentucky Research Foundation, priority 2004, dated 2010).

Assays:
[1] = test system: mouse mammary tumor virus promoter; conditions: only when low level of inducer (200 nm dexamethasone) present simultaneously
[2] = mice on a high-cholesterol diet

Row | Compound | effect on activity of mouse mammary tumor virus promoter [1] | effect on hepatic cholesterol [2]
1 | (−)-epigallocatechin-3-O-gallate | enhance the activity | –
2 | C/C=C1\C(=O)C[C@H]2[C@@H]3CCC4=CC(=O)CC[C@]4(C)[C@H]3CC[C@]12C [guggelsterone] | – | decrease hepatic cholesterol
